Where two headings read alike, the source gives them in different places.
Legend:
[1] = tested on: HCV genotype 1a (H77 strain) replicon in HUH-7 cells; test: HCV replicon luciferase reporter assay, genotype 1a; type: cell-based; settings: Hepatitis C virus, Huh-7, 72 h, HCV genotype 1a replicon luciferase, 3 days incubation
Outline: (§1)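 Replicon inhibition for both genotypes was measured as Renilla luciferase signal (EnduRen, 7.5 μM final, 2 h) after 3-day, 37° C exposure of replicon-bearing HUH-7 cells in 4% FCS DMEM, 0.5% DMSO. The 1b construct carries S1179I; the 1a H77 construct carries P1496L and S2204I. Twenty-point, 3-fold dilutions were fitted four-parametrically for EC50, and CC50 was taken from multiplexed Cell Titer-Blue.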

[2] = tested on: HCV genotype 1b (Con1) replicon in HUH-7 cells; test: HCV replicon luciferase reporter assay, genotype 1b; type: cell-based; settings: Hepatitis C virus, Huh-7, 72 h, HCV genotype 1b replicon luciferase, 3 days incubation
Outline: as §1

Which EC50 ([1]; read-out: LE_1a (EC50, range)) does the source give for `CC[C@@H]1C[C@@H](C)CC/C=C\[C@@H]2C[C@@]2(C(=O)NS(=O)(=O)C2CC2)NC(=O)[C@@H]2C[C@@H](Oc3nc(OC)cc4ccccc34)CN2C(=O)[C@H]1NC(=O)OC(C)(C)C(F)(F)F` [Compound 6002, 1,1,1-trifluoro-2-methylpropan-2-yl((2R,6S,7R,9S,13aS,14aR,16aS,Z)-14a-((cyclopropylsulfonyl)carbamoyl)-7-ethyl-2-((3-methoxyisoquinolin-1-yl)oxy)-9-methyl-5,16-dioxo-1,2,3,5,6,7,8,9,10,11,13a,14,14a,15,16,16a-hexadecahydrocyclopropa[e]pyrrolo[1,2-a][1,4]diazacyclopentadecin-6-yl)carbamate] here?
The EC50 was 4.82 to 103 nM.

What about the EC50 ([2]; read-out: LE_1b (EC50, range)) of the same molecule?
The EC50 was under 5.46 nM.

`CC[C@@H]1C[C@H](C)CC/C=C\[C@@H]2C[C@@]2(C(=O)NS(=O)(=O)C2CC2)NC(=O)[C@@H]2C[C@@H](Oc3nc(OC)cc4ccccc34)CN2C(=O)[C@H]1NC(=O)OC(C)(C)C(F)(F)F` [Compound 6003, 1,1,1-trifluoro-2-methylpropan-2-yl((2R,6S,7R,9R,13aS,14aR,16aS,Z)-14a-((cyclopropylsulfonyl)carbamoyl)-7-ethyl-2-((3-methoxyisoquinolin-1-yl)oxy)-9-methyl-5,16-dioxo-1,2,3,5,6,7,8,9,10,11,13a,14,14a,15,16,16a-hexadecahydrocyclopropa[e]pyrrolo[1,2-a][1,4]diazacyclopentadecin-6-yl)carbamate] was tested. Which EC50 ([1]; read-out: LE_1a (EC50)) did it give?
The EC50 was 1.33 nM.

And the EC50 ([1]; read-out: LE_1a (EC50, range))?
Its EC50 is under 5.46 nM.

What about the EC50 ([2]; read-out: LE_1b (EC50)) of the same molecule?
Its EC50 is 0.22 nM.

What about the EC50 ([2]; read-out: LE_1b (EC50, range)) of the same molecule?
The EC50 was under 5.46 nM.

What does the source list for `CC[C@@H]1C[C@@H](C)CC/C=C\[C@@H]2C[C@@]2(C(=O)NS(=O)(=O)C2(C)CC2)NC(=O)[C@@H]2C[C@@H](Oc3nc(OC)cc4ccccc34)CN2C(=O)[C@H]1NC(=O)OC(C)(C)C` [Compound 6004, tert-butyl ((2R,6S,7R,9S,13aS,14aR,16aS,Z)-7-ethyl-2-((3-methoxyisoquinolin-1-yl)oxy)-9-methyl-14a-(((1-methylcyclopropyl)sulfonyl)carbamoyl)-5,16-dioxo-1,2,3,5,6,7,8,9,10,11,13a,14,14a,15,16,16a-hexadecahydrocyclopropa[e]pyrrolo[1,2-a][1,4]diazacyclopentadecin-6-yl)carbamate]?
EC50 ([1]; read-out: LE_1a (EC50, range)): 4.82 to 103 nM; EC50 ([2]; read-out: LE_1b (EC50, range)): < 5.46 nM

For `CC[C@@H]1C[C@H](C)CC/C=C\[C@@H]2C[C@@]2(C(=O)NS(=O)(=O)C2(C)CC2)NC(=O)[C@@H]2C[C@@H](Oc3nc(OC)cc4ccccc34)CN2C(=O)[C@H]1NC(=O)OC(C)(C)C` [Compound 6005, tert-butyl ((2R,6S,7R,9R,13aS,14aR,16aS,Z)-7-ethyl-2-((3-methoxyisoquinolin-1-yl)oxy)-9-methyl-14a-(((1-methylcyclopropyl)sulfonyl)carbamoyl)-5,16-dioxo-1,2,3,5,6,7,8,9,10,11,13a,14,14a,15,16,16a-hexadecahydrocyclopropa[e]pyrrolo[1,2-a][1,4]diazacyclopentadecin-6-yl)carbamate], which EC50 ([1]; read-out: LE_1a (EC50)) is on record?
The EC50 was 1.29 nM.

And the EC50 ([1]; read-out: LE_1a (EC50, range))?
The EC50 was under 5.46 nM.

What about the EC50 ([2]; read-out: LE_1b (EC50)) of the same molecule?
The EC50 was 0.28 nM.

What about the EC50 ([2]; read-out: LE_1b (EC50, range)) of the same molecule?
The EC50 was under 5.46 nM.

What does the source list for `CC[C@@H]1C[C@H](C)CC/C=C\[C@@H]2C[C@@]2(C(=O)NS(=O)(=O)C2(C)CC2)NC(=O)[C@@H]2C[C@@H](Oc3nc(OC)cc4ccccc34)CN2C(=O)[C@H]1NC(=O)OC(C)(C)C(F)(F)F` [Compound 6007, 1,1,1-trifluoro-2-methylpropan-2-yl((2R,6S,7R,9R,13aS,14aR,16aS,Z)-7-ethyl-2-((3-methoxyisoquinolin-1-yl)oxy)-9-methyl-14a-(((1-methylcyclopropyl)sulfonyl)carbamoyl)-5,16-dioxo-1,2,3,5,6,7,8,9,10,11,13a,14,14a,15,16,16a-hexadecahydrocyclopropa[e]pyrrolo[1,2-a][1,4]diazacyclopentadecin-6-yl)carbamate]?
EC50 ([1]; read-out: LE_1a (EC50, range)): < 5.46 nM; EC50 ([2]; read-out: LE_1b (EC50, range)): < 5.46 nM

How did the EC50 ([1]; read-out: LE_1a (EC50, range)) turn out when `COc1cc2ccccc2c(O[C@@H]2C[C@H]3C(=O)N[C@]4(C(=O)NS(=O)(=O)C5(C)CC5)C[C@H]4/C=C\CC[C@H](C)C[C@@H](C)[C@H](NC(=O)OC(C)(C)C)C(=O)N3C2)n1` [Compound 6008, tert-butyl ((2R,6S,7R,9S,13aS,14aR,16aS,Z)-2-((3-methoxyisoquinolin-1-yl)oxy)-7,9-dimethyl-14a-(((1-methylcyclopropyl)sulfonyl)carbamoyl)-5,16-dioxo-1,2,3,5,6,7,8,9,10,11,13a,14,14a,15,16,16a-hexadecahydrocyclopropa[e]pyrrolo[1,2-a][1,4]diazacyclopentadecin-6-yl)carbamate] was run?
Its EC50 is under 5.46 nM.

What about the EC50 ([2]; read-out: LE_1b (EC50, range)) of the same molecule?
The EC50 was under 5.46 nM.

What does the source list for `COc1cc2ccccc2c(O[C@@H]2C[C@H]3C(=O)N[C@]4(C(=O)NS(=O)(=O)C5(C)CC5)C[C@H]4/C=C\CC[C@@H](C)C[C@@H](C)[C@H](NC(=O)OC(C)(C)C)C(=O)N3C2)n1` [Compound 6009, tert-butyl ((2R,6S,7R,9R,13aS,14aR,16aS,Z)-2-((3-methoxyisoquinolin-1-yl)oxy)-7,9-dimethyl-14a-(((1-methylcyclopropyl)sulfonyl)carbamoyl)-5,16-dioxo-1,2,3,5,6,7,8,9,10,11,13a,14,14a,15,16,16a-hexadecahydrocyclopropa[e]pyrrolo[1,2-a][1,4]diazacyclopentadecin-6-yl)carbamate]?
EC50 ([1]; read-out: LE_1a (EC50)): 1.12 nM; EC50 ([1]; read-out: LE_1a (EC50, range)): < 5.46 nM; EC50 ([2]; read-out: LE_1b (EC50)): 0.3 nM; EC50 ([2]; read-out: LE_1b (EC50, range)): < 5.46 nM

How did the EC50 ([1]; read-out: LE_1a (EC50, range)) turn out when `COc1cc2ccccc2c(O[C@@H]2C[C@H]3C(=O)N[C@]4(C(=O)NS(=O)(=O)C5CC5)C[C@H]4/C=C\CC[C@@H](C)C[C@@H](C)[C@H](NC(=O)OC(C)(C)C)C(=O)N3C2)n1` [Compound 6011, tert-butyl ((2R,6S,7R,9R,13aS,14aR,16aS,Z)-14a-((cyclopropylsulfonyl)carbamoyl)-2-((3-methoxyisoquinolin-1-yl)oxy)-7,9-dimethyl-5,16-dioxo-1,2,3,5,6,7,8,9,10,11,13a,14,14a,15,16,16a-hexadecahydrocyclopropa[e]pyrrolo[1,2-a][1,4]diazacyclopentadecin-6-yl)carbamate] was run?
Its EC50 is under 5.46 nM.

What about the EC50 ([2]; read-out: LE_1b (EC50, range)) of the same molecule?
The EC50 was under 5.46 nM.

`COc1cc2ccccc2c(O[C@@H]2C[C@H]3C(=O)N[C@]4(C(=O)NS(=O)(=O)C5(C)CC5)C[C@H]4/C=C\CC[C@@H](C)C[C@@H](C)[C@H](NC(=O)OC(C)(C)C(F)(F)F)C(=O)N3C2)n1` [Compound 6015, 1,1,1-trifluoro-2-methylpropan-2-yl((2R,6S,7R,9R,13aS,14aR,16aS,Z)-2-((3-methoxyisoquinolin-1-yl)oxy)-7,9-dimethyl-14a-(((1-methylcyclopropyl)sulfonyl)carbamoyl)-5,16-dioxo-1,2,3,5,6,7,8,9,10,11,13a,14,14a,15,16,16a-hexadecahydrocyclopropa[e]pyrrolo[1,2-a][1,4]diazacyclopentadecin-6-yl)carbamate] was tested. Which EC50 ([1]; read-out: LE_1a (EC50)) did it give?
Its EC50 is 1.19 nM.

What about the EC50 ([1]; read-out: LE_1a (EC50, range)) of the same molecule?
Its EC50 is under 5.46 nM.

And the EC50 ([2]; read-out: LE_1b (EC50))?
Its EC50 is 0.24 nM.

And the EC50 ([2]; read-out: LE_1b (EC50, range))?
Its EC50 is under 5.46 nM.

How did the EC50 ([1]; GETYPE1A, read-out: LE_1a (EC50, range)) turn out when `COc1cc2ccccc2c(O[C@@H]2C[C@H]3C(=O)N[C@]4(C(=O)NS(=O)(=O)C5(CF)CC5)C[C@H]4/C=C\CC[C@@H](C)C[C@@H](C)[C@H](NC(=O)OC(C)(C)C(F)(F)F)C(=O)N3C2)n1` [Compound 6016] was run?
The EC50 was under 5.46 nM.

And the EC50 ([2]; GETYPE1B, read-out: LE_1b (EC50, range))?
Its EC50 is under 5.46 nM.

For `COc1cc2ccccc2c(O[C@@H]2C[C@H]3C(=O)N[C@]4(C(=O)NS(=O)(=O)C5CC5)C[C@H]4/C=C\CC[C@H](C)C[C@@H](C)[C@H](NC(=O)OC(C)(C)C(F)(F)F)C(=O)N3C2)n1` [Compound 6017, 1,1,1-trifluoro-2-methylpropan-2-yl((2R,6S,7R,9S,13aS,14aR,16aS,Z)-14a-((cyclopropylsulfonyl)carbamoyl)-2-((3-methoxyisoquinolin-1-yl)oxy)-7,9-dimethyl-5,16-dioxo-1,2,3,5,6,7,8,9,10,11,13a,14,14a,15,16,16a-hexadecahydrocyclopropa[e]pyrrolo[1,2-a][1,4]diazacyclopentadecin-6-yl)carbamate], which EC50 ([1]; read-out: LE_1a (EC50, range)) is on record?
Its EC50 is under 5.46 nM.

And the EC50 ([2]; read-out: LE_1b (EC50, range))?
The EC50 was under 5.46 nM.

How did the EC50 ([1]; read-out: LE_1a (EC50, range)) turn out when `COc1cc2ccccc2c(O[C@@H]2C[C@H]3C(=O)N[C@]4(C(=O)NS(=O)(=O)C5CC5)C[C@H]4/C=C\CC[C@@H](C)C[C@@H](C)[C@H](NC(=O)OC(C)(C)C(F)(F)F)C(=O)N3C2)n1` [Compound 6018, 1,1,1-trifluoro-2-methylpropan-2-yl((2R,6S,7R,9R,13aS,14aR,16aS,Z)-14a-((cyclopropylsulfonyl)carbamoyl)-2-((3-methoxyisoquinolin-1-yl)oxy)-7,9-dimethyl-5,16-dioxo-1,2,3,5,6,7,8,9,10,11,13a,14,14a,15,16,16a-hexadecahydrocyclopropa[e]pyrrolo[1,2-a][1,4]diazacyclopentadecin-6-yl)carbamate] was run?
Its EC50 is under 5.46 nM.

And the EC50 ([2]; read-out: LE_1b (EC50, range))?
Its EC50 is under 5.46 nM.

Which results are given for `C[C@@H]1CC/C=C\[C@@H]2C[C@@]2(C(=O)NS(=O)(=O)C2(C)CC2)NC(=O)[C@@H]2C[C@@H](Oc3nc4c(c5ccccc35)OCCC4)CN2C(=O)[C@@H](NC(=O)OC(C)(C)C)[C@H](C)C1` [Compound 6020, tert-butyl ((2R,6S,7R,9R,13aS,14aR,16aS,Z)-2-((3,4-dihydro-2H-pyrano[3,2-c]isoquinolin-6-yl)oxy)-7,9-dimethyl-14a-(((1-methylcyclopropyl)sulfonyl)carbamoyl)-5,16-dioxo-1,2,3,5,6,7,8,9,10,11,13a,14,14a,15,16,16a-hexadecahydrocyclopropa[e]pyrrolo[1,2-a][1,4]diazacyclopentadecin-6-yl)carbamate]?
EC50 ([1]; read-out: LE_1a (EC50, range)): < 5.46 nM; EC50 ([2]; read-out: LE_1b (EC50, range)): < 5.46 nM

From patent US9499550B2 (BRISTOL-MYERS SQUIBB COMPANY, priority 2012, dated 2016)
